Source: patent publication US6407094B1, “Glutamate receptor antagonists” (Hoffmann-la Roche Inc., priority 1999, dated 2002)

melting point | SMILES
222 to 224 °C (dec.) | CN1CCN(c2cc3c(cc2C#Cc2ccccc2)NC(=O)CC(c2cccc(C#N)c2)=N3)CC1 [Example 5, 3-[8-(4-Methyl-piperazin-1-yl)-4-oxo-7-phenylethynyl-4,5-dihydro-3H-benzo[b][1,4]diazepin-2-yl]-benzonitrile]
> 250 °C (dec.) | N#Cc1cccc(C2=Nc3cc(N4CCS(=O)(=O)CC4)c(C#Cc4ccccc4)cc3NC(=O)C2)c1 [Example 6, 3-[8-(1,1-Dioxo-thiomorpholin-4-yl)-4-oxo-7-phenylethynyl-4,5-dihydro-3H-benzo[b][1,4]diazepin-2-yl]-benzonitrile]
174 to 176 °C | COCCOc1cc2c(cc1C#Cc1ccccc1)NC(=O)CC(c1cccc(C#N)c1)=N2 [Example 18, 3-[8-(2-Methoxy-ethoxy)-4-oxo-7-phenylethynyl-4,5-dihydro-3H-benzo[b][1,4]diazepin-2-yl]-benzonitrile]
> 250 °C | COC(=O)c1cc2c(cc1C#Cc1ccccc1)NC(=O)CC(c1cccc(C#N)c1)=N2 [Example 19, 4-(3-Cyano-phenyl)-2-oxo-8-phenylethynyl-2,3-dihydro-1H-benzo[b][1,4]diazepine-7-carboxylic acid methyl ester]
257 °C (dec.) | N#Cc1cccc(C2=Nc3cc(OCC(=O)O)c(C#Cc4ccccc4)cc3NC(=O)C2)c1 [Example 22, [4-(3-Cyano-phenyl)-2-oxo-8-phenylethynyl-2,3-dihydro-1H-benzo[b][1,4]diazepin-7-yloxy]-acetic acid]
218 °C | CC(C)(C)C(=O)OCc1cc2c(cc1C#Cc1ccccc1)NC(=O)CC(c1cccc(C#N)c1)=N2 [Example 30, 2,2-Dimethyl-propionic acid 4-(3-cyano-phenyl)-2-oxo-8-phenylethynyl-2,3-dihydro-1H-benzo[b][1,4]diazepin-7-ylmethyl ester]
> 255 °C | N#Cc1cccc(C2=Nc3cc(CO)c(C#Cc4ccccc4)cc3NC(=O)C2)c1 [Example 31, 3-(8-Hydroxymethyl-4-oxo-7-phenylethynyl-4,5-dihydro-3H-benzo[b][1,4]diazepin-2-yl)-benzonitrile]
250 to 251 °C | COC1CCN(c2cc3c(cc2C#Cc2ccccc2)NC(=O)CC(c2cccc(C#N)c2)=N3)CC1 [Example 34, 3-[8-(4-Methoxy-piperidin-1-yl)-4-oxo-7-phenylethynyl-4,5-dihydro-3H-benzo[b][1,4]diazepin-2-yl]-benzonitrile]
214 °C | N#CCOc1cc2c(cc1C#Cc1ccccc1)NC(=O)CC(c1cccc(-n3ccnc3)c1)=N2 [Example 35, [4-(3-Imidazol-1-yl-phenyl)-2-oxo-8-phenylethynyl-2,3-dihydro-1H-benzo[b][1,4]diazepin-7-yloxy]-acetonitrile]
212 °C | N#CCOc1cc2c(cc1C#Cc1ccccc1)NC(=O)CC(c1cccc(C#N)c1)=N2 [Example 36, 3-(8-Cyanomethoxy-4-oxo-7-phenylethynyl-4,5-dihydro-3H-benzo[b][1,4]diazepin-2-yl)-benzonitrile]
217 °C (dec.) | CN(CCO)c1cc2c(cc1C#Cc1ccc(F)cc1)NC(=O)CC(c1cccc(-n3ccnc3)c1)=N2 [Example 38, 8-(4-Fluoro-phenylethynyl)-7-[(2-hydroxy-ethyl)-methyl-amino]-4-(3-imidazol-1-yl-phenyl)-1,3-dihydro-benzo[b][1,4]diazepin-2-one]
231 °C (dec.) | O=C1CCN(c2cc3c(cc2C#Cc2ccccc2)NC(=O)CC(c2cccc(-n4ccnc4)c2)=N3)CC1 [Example 39, 4-(3-Imidazol-1-yl-phenyl)-7-(4-oxo-piperidin-1-yl)-8-phenylethynyl-1,3-dihydro-benzo[b][1,4]diazepin-2-one]
> 250 °C | CC(C)(C)NC(=O)COc1cc2c(cc1C#Cc1ccccc1)NC(=O)CC(c1cccc(C#N)c1)=N2 [Example 40, N-tert.-Butyl-2-[4-(3-cyano-phenyl)-2-oxo-8-phenylethynyl-2,3-dihydro-1H-benzo[b][1,4]diazepin-7-yloxy]-acetamide]
> 250 °C | CONC(=O)COc1cc2c(cc1C#Cc1ccccc1)NC(=O)CC(c1cccc(C#N)c1)=N2 [Example 41, 2-[4-(3-Cyano-phenyl)-2-oxo-8-phenylethynyl-2,3-dihydro-1H-benzo[b][1,4]diazepin-7-yloxy]-N-methoxy-acetamide]
244 °C | O=C1CC(c2cccc(-n3ccnc3)c2)=Nc2cc(N3C[C@@H](O)[C@@H](O)C3)c(-c3ccc(F)cc3)cc2N1 [Example 50, 7-(cis-3,4-Dihydroxy-pyrrolidin-1-yl)-8-(4-fluoro-phenyl)-4-(3-imidazol-1-yl-phenyl)-1,3-dihydro-benzo[b][1,4]diazepin-2-one]
204 °C | O=C1CCN(c2cc3c(cc2-c2ccc(F)cc2)NC(=O)CC(c2cccc(-n4ccnc4)c2)=N3)CC1 [Example 52, 8-(4-Fluoro-phenyl)-4-(3-imidazol-1-yl-phenyl)-7-(4-oxo-piperidin-1-yl)-1,3-dihydro-benzo[b][1,4]diazepin-2-one]
196 °C | Cc1cc2c(cc1-c1ccc(F)cc1)NC(=O)CC(c1cccc(-n3ccnc3)c1)=N2 [Example 53, 8-(4-Fluoro-phenyl)-4-(3-imidazol-1-yl-phenyl)-7-methyl-1,3-dihydro-benzo[b][1,4]diazepin-2-one]

The next lines start with the molecule.

SMILES | melting point
Cc1cc2c(cc1C#Cc1ccccc1)NC(=O)CC(c1cccc(C#N)c1)=N2 [Example 4, 3-(8-Methyl-4-oxo-7-phenylethynyl-4,5-dihydro-3H-benzo[b][1,4]diazepin-2-yl)-benzonitrile] | 237 to 239 °C (dec.)
N#Cc1cccc(C2=Nc3cc(N4CCC5(CC4)OCCO5)c(C#Cc4ccccc4)cc3NC(=O)C2)c1 [Example 9, 3-[8-(1,4-Dioxa-8-aza-spiro[4.5]dec-8-yl)-4-oxo-7-phenylethynyl-4,5-dihydro-3H-benzo[b][1,4]diazepin-2-yl]-benzonitrile] | 239 to 243 °C (dec.)
CN(C)CCSc1cc2c(cc1C#Cc1ccccc1)NC(=O)CC(c1cccc(C#N)c1)=N2 [Example 11, 3-[8-(2-Dimethylamino-ethylsulfanyl)-4-oxo-7-phenylethynyl-4,5-dihydro-3H-benzo[b][1,4]diazepin-2-yl]-benzonitrile] | 197 °C (dec.)
N#Cc1cccc(C2=Nc3cc(SCC(=O)O)c(C#Cc4ccccc4)cc3NC(=O)C2)c1 [Example 13, [4-(3-Cyano-phenyl)-2-oxo-8-phenylethynyl-2,3-dihydro-1H-benzo[b][1,4]diazepin-7-ylsulfanyl]-acetic acid] | 202 °C (dec.)
COC(=O)Cc1cc2c(cc1C#Cc1ccccc1)NC(=O)CC(c1cccc(C#N)c1)=N2 [Example 14, [4-(3-Cyano-phenyl)-2-oxo-8-phenylethynyl-2,3-dihydro-1H-benzo[b][1,4]diazepin-7-yl]-acetic acid methyl ester] | 236 °C (dec.)
N#Cc1cccc(C2=Nc3cc(OCC(O)CO)c(C#Cc4ccccc4)cc3NC(=O)C2)c1 (stereo not drawn) [Example 24, 3-[8-(2,3-Dihydroxy-propoxy)-4-oxo-7-phenylethynyl-4,5-dihydro-3H-benzo[b][1,4]diazepin-2-yl]-benzonitrile] | 230 to 234 °C (dec.)
CCOCc1cc2c(cc1C#Cc1ccccc1)NC(=O)CC(c1cccc(C#N)c1)=N2 [Example 29, 3-(8-Ethoxymethyl-4-oxo-7-phenylethynyl-4,5-dihydro-3H-benzo [b][1,4]diazepin-2-yl)-benzonitrile] | 229 °C
COC1CCN(c2cc3c(cc2C#Cc2ccccc2)NC(=O)CC(c2cccc(-n4ccnc4)c2)=N3)CC1 [Example 33, 4-(3-Imidazol-1-yl-phenyl)-7-(4-methoxy-piperidin-1-yl)-8-phenylethynyl-1,3-dihydro-benzo[b][1,4]diazepin-2-one] | 222 °C
O=C1CC(c2cccc(-n3ccnc3)c2)=Nc2cc(N3CCC(O)CC3)c(-c3ccc(F)cc3)cc2N1 [Example 43, 8-(4-Fluoro-phenyl)-7-(4-hydroxy-piperidin-1-yl)-4-(3-imidazol-1-yl-phenyl)-1,3-dihydro-benzo[b][1,4]diazepin-2-one] | 238 to 240 °C
O=C1CC(c2cccc(-n3ccnc3)c2)=Nc2cc(OCCO)c(C#Cc3ccc(F)cc3)cc2N1 [Example 44, 8-(4-Fluoro-phenylethynyl)-7-(2-hydroxy-ethoxy)-4-(3-imidazol-1-yl-phenyl)-1,3-dihydro-benzo[b][1,4]diazepin-2-one] | 220 to 222 °C
O=C1CC(c2cccc(-n3ccnc3)c2)=Nc2cc(CO)c(-c3ccc(F)cc3)cc2N1 [Example 46, 8-(4-Fluoro-phenyl)-7-hydroxymethyl-4-(3-imidazol-1-yl-phenyl)-1,3-dihydro-benzo[b][1,4]diazepin-2-one] | 180 to 195 °C
N#CCOc1cc2c(cc1-c1ccc(F)cc1)NC(=O)CC(c1cccc(-n3ccnc3)c1)=N2 [Example 47, [8-(4-Fluoro-phenyl)-4-(3-imidazol-1-yl-phenyl)-2-oxo-2,3-dihydro-1H-benzo[b][1,4]diazepin-7-yloxy]-acetonitrile] | 164 °C
CN(C)Cc1cc2c(cc1-c1ccc(F)cc1)NC(=O)CC(c1cccc(-n3ccnc3)c1)=N2 [Example 48, 7-Dimethylaminomethyl-8-(4-fluoro-phenyl)-4-(3-imidazol-1-yl-phenyl)-1,3-dihydro-benzo[b][1,4]diazepin-2-one] | 115 to 140 °C (dec.)
CC1(C)OC2CN(c3cc4c(cc3-c3ccc(F)cc3)NC(=O)CC(c3cccc(-n5ccnc5)c3)=N4)CC2O1 (stereo not drawn) [Example 49, 7-(2,2-Dimethyl-tetrahydro-[1,3]dioxolo [4,5-c]pyrrol-5-yl)-8-(4-fluoro-phenyl)-4-(3-imidazol-1-yl-phenyl)-1,3-dihydro-benzo[b][1,4]diazepin-2-one] | 240 °C (dec.)
COc1cc2c(cc1-c1ccc(F)cc1)NC(=O)CC(c1cccc(-n3ccnc3)c1)=N2 [Example 51, 8-(4-Fluoro-phenyl)-4-(3-imidazol-1-yl-phenyl)-7-methoxy-1,3-dihydro-benzo[b][1,4]diazepin-2-one] | 221 °C (dec.)
O=C1CC(c2cccc(-n3ccnc3)c2)=Nc2cc(Cl)c(-c3ccc(F)cc3)cc2N1 [Example 56, 7-Chloro-8-(4-fluoro-phenyl)-4-(3-imidazol-1-yl-phenyl)-1,3-dihydro-benzo[b][1,4]diazepin-2-one] | 209 to 211 °C
